In US20260001849A1, “NOVEL B0AT1 INHIBITOR” (MITSUBISHI TANABE PHARMA CORPORATION, priority 2023, published 2026):
Like-named read-outs stand apart in the source and are kept apart here.

Key:
Human BOAT1 = molecular target: T1, Human BOAT1 (Homo sapiens, UniProt Q695T7); experiment: hBOAT1 inhibitory test (phenylalanine uptake); type: cell-based; settings: Human BOAT1 stable expression CHO cells, phenylalanine 0.25 mM, read-out: hB0AT1 IC50
T1 construct: expressed in transfected cells
T1 sequence (Q695T7 1-634): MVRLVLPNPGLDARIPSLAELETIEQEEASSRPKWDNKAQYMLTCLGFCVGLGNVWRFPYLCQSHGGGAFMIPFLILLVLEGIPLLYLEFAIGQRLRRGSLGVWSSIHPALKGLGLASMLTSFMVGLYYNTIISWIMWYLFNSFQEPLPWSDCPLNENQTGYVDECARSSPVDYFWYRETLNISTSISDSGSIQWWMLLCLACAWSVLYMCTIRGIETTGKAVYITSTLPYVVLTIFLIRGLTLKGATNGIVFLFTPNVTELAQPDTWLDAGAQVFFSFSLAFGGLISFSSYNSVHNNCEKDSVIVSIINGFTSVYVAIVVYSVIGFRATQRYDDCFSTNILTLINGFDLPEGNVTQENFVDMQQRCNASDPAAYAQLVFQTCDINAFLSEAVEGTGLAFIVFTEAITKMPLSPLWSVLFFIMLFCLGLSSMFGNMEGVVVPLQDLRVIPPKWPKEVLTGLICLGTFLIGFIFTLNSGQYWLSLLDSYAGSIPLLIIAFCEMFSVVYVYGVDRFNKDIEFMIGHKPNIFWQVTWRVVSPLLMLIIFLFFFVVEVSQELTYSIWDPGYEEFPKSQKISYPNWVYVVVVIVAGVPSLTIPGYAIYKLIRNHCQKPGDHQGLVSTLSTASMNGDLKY
Summary of the method: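 Human BOAT1 stably expressed in CHO cells (75000 cells/well) in HEPES-buffered NaCl/KCl/CaCl2/MgCl2 buffer with 0.01% BSA, compound at 0.5% DMSO, preincubated ≥30 min at ordinary temperature. Uptake of L-phenylalanine plus [3H]-L-phenylalanine (0.25 mM final) read by scintillation proximity; 100–200 min values analysed, non-specific uptake defined with […] reference inhibitor.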

hERG channel = molecular target: T2, hERG channel (Homo sapiens, UniProt Q12809); experiment: hERG channel inhibitory activity, whole-cell patch clamp (auto-patch clamp system); type: cell-based; settings: read-out: hERG IC50
T2 construct: host or cells: CHO cells
T2 sequence (Q12809 whole entry): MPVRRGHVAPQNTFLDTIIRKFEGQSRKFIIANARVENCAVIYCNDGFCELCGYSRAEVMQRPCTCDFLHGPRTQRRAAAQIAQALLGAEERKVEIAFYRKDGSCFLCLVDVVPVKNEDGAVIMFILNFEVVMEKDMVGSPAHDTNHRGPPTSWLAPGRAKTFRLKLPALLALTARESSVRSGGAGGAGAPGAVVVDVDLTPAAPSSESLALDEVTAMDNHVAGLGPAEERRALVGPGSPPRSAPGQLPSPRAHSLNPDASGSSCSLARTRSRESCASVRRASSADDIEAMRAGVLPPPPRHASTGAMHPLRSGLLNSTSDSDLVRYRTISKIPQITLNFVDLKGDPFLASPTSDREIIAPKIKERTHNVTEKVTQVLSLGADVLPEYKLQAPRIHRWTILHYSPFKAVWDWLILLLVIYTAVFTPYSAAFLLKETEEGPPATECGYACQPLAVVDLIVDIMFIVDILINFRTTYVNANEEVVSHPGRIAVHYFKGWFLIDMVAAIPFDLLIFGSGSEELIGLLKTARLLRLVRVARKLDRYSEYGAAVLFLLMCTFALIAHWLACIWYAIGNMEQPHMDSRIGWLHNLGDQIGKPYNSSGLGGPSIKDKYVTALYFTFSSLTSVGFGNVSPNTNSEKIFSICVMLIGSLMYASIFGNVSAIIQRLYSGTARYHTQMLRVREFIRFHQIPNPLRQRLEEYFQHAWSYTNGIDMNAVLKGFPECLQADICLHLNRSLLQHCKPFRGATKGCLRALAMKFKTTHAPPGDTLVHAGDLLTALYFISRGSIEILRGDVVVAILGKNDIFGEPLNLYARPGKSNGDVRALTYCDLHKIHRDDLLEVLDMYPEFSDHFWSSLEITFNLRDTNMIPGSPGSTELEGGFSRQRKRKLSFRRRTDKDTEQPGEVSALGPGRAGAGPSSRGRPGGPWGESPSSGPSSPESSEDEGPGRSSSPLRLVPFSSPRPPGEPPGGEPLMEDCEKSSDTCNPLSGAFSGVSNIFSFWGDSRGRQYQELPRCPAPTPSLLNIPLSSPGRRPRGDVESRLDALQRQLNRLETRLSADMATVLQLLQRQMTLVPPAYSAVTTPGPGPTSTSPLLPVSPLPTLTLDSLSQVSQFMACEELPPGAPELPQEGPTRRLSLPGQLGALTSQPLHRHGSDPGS
Description: Evaluation of hERG (Human Ether-a-go-go Related Gene) Channel Inhibitory Activity
The hERG channel inhibitory activity of the compound of the present invention was measured using CHO cells (B′ SYS GmbH) forcibly expressing hERG channels involved in human rapidly active delayed rectifier potassium current (IKr) by the whole-cell patch clamp method using an auto-patch clamp system (SyncroPatch384PE).
Cell suspension, extracellular fluid, intracellular fluid, and measurement plate (NPC-384 plate) were placed in the auto-patch clamp system, and hERG current measurements were performed using the whole-cell patch clamp method. The voltage protocol was set to a holding potential of −80 mV, with a depolarizing pulse preceded by −90 mV (100 ms) and followed by −80 mV (100 ms).
The depolarizing pulse was […] (500 ms), and then the hERG peak current value obtained during the ramp phase was measured when the voltage was lowered to −80 mV over 100 ms. The protocol was applied at 5-second intervals for 5 minutes for each concentration.
SyncroPatch software (manufactured by Nanion) was used for data analysis. Four concentrations were applied incrementally for each test substance, and the average hERG Peak current value obtained from the last three stimuli of each applied concentration was used as the evaluation data. The IC50 value was calculated from the inhibition rate of the current at each concentration of each test substance relative to the pre-application value using Hill's equation (Hill equation) using the relevant software.
The same experiments were also performed using the example compounds described in WO 2023/145804 as comparative example compounds 1-4.

[1] = [3H]-L-phenylalanine uptake, radioactivity after 100 to 200 min

| IC50 (Human BOAT1; [1]) [nM] | IC50 (Human BOAT1; phenylalanine uptake) [nM] | Structure (SMILES) | IC50 (hERG channel) [nM] |
| --- | --- | --- | --- |
| 64 | – | Cc1ccc([C@H]2CN(CCCC(=O)O)[C@H](C)CN2C(=O)CNC(=O)/C=C/c2ccc(C(F)(F)F)cc2F)cc1 [I-383] | 15200 |
| 168 | – | O=C(O)Cc1ccc2c(c1)CCN(C(=O)CNC(=O)/C=C/c1ccc(Cl)cc1)C2 [I-185] | > 30000 |
| 76 | – | O=C(O)Cc1ccc2c(c1)CCN(C(=O)CNC(=O)/C=C/c1ccc(Cl)cc1F)C2 [I-186] | > 30000 |
| – | 93 | C[C@@H]1CN(C(=O)CNC(=O)/C=C/c2ccc(C(F)(F)F)cc2F)[C@@H](c2ccc(F)c(F)c2)CN1CCCC(=O)O [I-349] | > 30000 |
| 149 | – | O=C(O)Cc1nc2c(s1)CN(C(=O)CNC(=O)/C=C/c1ccc(C(F)(F)F)cc1)CC2 [I-202] | > 30000 |
| 370 | – | C[C@@H]1CN(C(=O)CNC(=O)/C=C/c2ccc(C(F)(F)F)cc2F)[C@H](C)CN1CCCC(=O)O [I-199] | > 30000 |
| 100 | – | N#Cc1cc(CC(=O)O)cc2c1CN(C(=O)CNC(=O)/C=C/c1ccc(C(F)(F)F)cc1F)CC2 [I-147] | > 30000 |
| 155 | – | O=C(/C=C/c1ccc(C(F)(F)F)cc1)NCC(=O)N1CCc2cc([C@@H]3C[C@H]3C(=O)O)ccc2C1 (racemic) [I-172, (1R*,2R*)-2-[2-[2-[[(E)-3-[4-(trifluoromethyl)phenyl]prop-2-enoylamino]acetyl]-3,4-dihydro-1H-isoquinolin-6-yl]cyclopropanoic acid] | > 30000 |
| 102 | – | O=C(O)Cc1ccc2c(c1)CCN(C(=O)CNC(=O)/C=C/c1ccc(S(F)(F)(F)(F)F)cc1)C2 [I-190] | > 30000 |
| 59 | – | O=C(O)Cc1ccc2c(c1)CCN(C(=O)CNC(=O)/C=C/c1ccc(C(F)(F)F)cc1F)C2 [I-187] | > 30000 |
| 97 | – | O=C(O)CCCN1CCN(C(=O)CNC(=O)/C=C/c2ccc(C(F)(F)F)cc2F)C(c2cccc(Cl)c2)C1 (stereo not drawn) [I-238] | > 30000 |
| 110 | – | N#Cc1cc2c(cc1CC(=O)O)CCN(C(=O)CNC(=O)/C=C/c1ccc(C(F)(F)F)cc1F)C2 [I-224] | > 30000 |
| – | 87 | O=C(/C=C/c1ccc(C(F)(F)F)cc1)NCC(=O)N1CCc2cc([C@@H]3C[C@H]3C(=O)O)ccc2C1 (single isomer, unassigned) [I-289, (1R*,2R*)-2-[2-[2-[[(E)-3-[4-(trifluoromethyl)phenyl]prop-2-enoyl]amino]acetyl]-3,4-dihydro-1H-isoquinolin-6-yl]cyclopropane-1-carboxylic acid] | > 30000 |
| 86 | – | N#Cc1cc2c(cc1CC(=O)O)CCN(C(=O)CNC(=O)/C=C/c1ccc(I)cc1F)C2 [I-223] | 28500 |
| 54 | – | O=C(O)Cc1nc2c(s1)CCN(C(=O)CNC(=O)/C=C/c1ccc(C(F)(F)F)cc1)C2 [I-201] | > 30000 |
| 186 | – | CC(C)(Oc1cc(F)c2c(c1)CCN(C(=O)CNC(=O)/C=C/c1ccc(C(F)(F)F)cc1)C2)C(=O)O [I-195] | > 30000 |
| 86 | – | O=C(O)Cc1cc(Cl)c2c(c1)CCN(C(=O)CNC(=O)/C=C/c1ccc(C(F)(F)F)cc1)C2 [I-145] | > 30000 |
| 165 | – | O=C(O)CSc1nc2c(s1)CN(C(=O)CNC(=O)/C=C/c1ccc(C(F)(F)F)cc1)CC2 [I-215] | > 30000 |
| – | 75 | [2H]C([2H])([2H])[C@@H]1CN(C(=O)CNC(=O)/C=C/c2ccc(C(F)(F)F)cc2F)[C@@H](c2ccccc2)CN1CCCC(=O)O [I-397] | > 30000 |
| 158 | – | O=C(O)CCCCN1CCN(C(=O)CNC(=O)/C=C/c2ccc(C(F)(F)F)cc2F)C(c2ccccc2)C1 (stereo not drawn) [I-242] | > 30000 |
| 74 | – | O=C(O)COc1cccc2c1CCN2C(=O)CNC(=O)/C=C/c1ccc(C(F)(F)F)cc1 [I-194] | > 30000 |

| IC50 (Human BOAT1; [1]) [nM] | IC50 (Human BOAT1; phenylalanine uptake) [nM] | Structure (SMILES) | IC50 (hERG channel) [nM] |
| --- | --- | --- | --- |
| – | 400 | C[C@@H]1[C@H](c2ccccc2)N(C(=O)CNC(=O)/C=C/c2ccc(C(F)(F)F)cc2F)CCN1CCCC(=O)O [I-353] | > 30000 |
| 151 | – | O=C(O)Cc1cc(F)c2c(c1)CCN(C(=O)CNC(=O)/C=C/c1ccc(C(F)(F)F)cc1)C2 [I-143] | > 30000 |
| 234 | – | CC1CN(C(=O)CNC(=O)/C=C/c2ccc(C(F)(F)F)cc2F)CCN1CCCC(=O)O (stereo not drawn) [I-231] | > 30000 |
| 104 | – | O=C(O)COc1ccc2c(c1)CCN(C(=O)CNC(=O)/C=C/c1ccc(C(F)(F)F)cc1)C2 [I-191] | > 30000 |
| 302 | – | O=C(O)CCCN1CCN(C(=O)CNC(=O)/C=C/c2ccc(C(F)(F)F)cc2F)C(c2cccc(F)c2)C1 (stereo not drawn) [I-239] | > 30000 |
| 199 | – | O=C(O)CCCN1CCN(C(=O)CNC(=O)/C=C/c2ccc(C(F)(F)F)cc2F)C(c2ccc(F)cc2)C1 (stereo not drawn) [I-237] | > 30000 |
| – | 1680 | O=C(O)CCCN1C[C@H](c2ccccc2)N(C(=O)CNC(=O)/C=C/c2ccc(C(F)(F)F)cc2F)CC12CC2 [I-341] | > 30000 |
| 3700 | – | O=C(O)CCCN1CCN(C(=O)CNC(=O)/C=C/c2ccc(C(F)(F)F)cc2F)[C@@H](C(F)(F)F)C1 [I-243] | > 30000 |
| 207 | – | N#Cc1cc(CC(=O)O)cc2c1CN(C(=O)CNC(=O)/C=C/c1ccc(C(F)(F)F)cc1)CC2 [I-148] | > 30000 |
| 2400 | – | C[C@@H]1CN(C(=O)CNC(=O)/C=C/c2ccc(C(F)(F)F)cc2F)[C@@H](C)CN1CCCC(=O)O [I-197] | > 30000 |
| – | 184 | C[C@@H]1CN(C(=O)CNC(=O)/C=C/c2ccc(C(F)(F)F)cc2)[C@@H](c2ccc(F)c(F)c2)CN1CCCC(=O)O [I-350] | > 30000 |
| 141 | – | O=C(O)Cc1ccc2c(c1F)CCN(C(=O)CNC(=O)/C=C/c1ccc(C(F)(F)F)cc1)C2 [I-162] | > 30000 |
| – | 31 | C[C@@H]1CN(C(=O)CNC(=O)/C=C/c2ccc(C(F)(F)F)cc2F)[C@@H](c2ccc(Cl)cc2)CN1CCCC(=O)O [I-337] | 15500 |
| 34 | – | O=C(O)Cc1cc(Cl)c2c(c1)CCN(C(=O)CNC(=O)/C=C/c1ccc(C(F)(F)F)cc1F)C2 [I-141] | > 30000 |
| 161 | – | O=C(O)CCN1CCN(C(=O)CNC(=O)/C=C/c2ccc(C(F)(F)F)cc2F)C(c2ccccc2)C1 (stereo not drawn) [I-241] | > 30000 |
| 147 | – | O=C(/C=C/c1ccc(C(F)(F)F)cc1F)NCC(=O)N1CCN(C[C@H]2C[C@H](C(=O)O)C2)CC1c1ccc(Cl)cc1 (stereo partly drawn) [I-248] | > 30000 |
| – | 119 | O=C(O)CCCN1CCN(C(=O)CNC(=O)/C=C/c2ccc(C(F)(F)F)cc2F)C(c2ccccc2)C1 (single isomer, unassigned) [I-290, 4-[4-[2-[[(E)-3-[2-fluoro-4-(trifluoromethyl)phenyl]prop-2-enoyl]amino]acetyl]-3-phenylpiperazin-1-yl]butanoic acid] | > 30000 |
| 613 | – | O=C(O)CCCN1CCN(C(=O)CNC(=O)/C=C/c2ccc(C(F)(F)F)cc2F)[C@H](C(F)(F)F)C1 [I-244] | > 30000 |
| – | 338 | CC(C)[C@@H]1CN(C(=O)CNC(=O)/C=C/c2ccc(C(F)(F)F)cc2F)[C@@H](c2ccccc2)CN1CCCC(=O)O [I-342] | > 30000 |
| 609 | – | O=C(O)CCCN1CCN(C(=O)CNC(=O)/C=C/c2ccc(C(F)(F)F)cc2F)C(c2ccccc2Cl)C1 (stereo not drawn) [I-233] | > 30000 |
| – | 71 | C[C@@H]1CN(C(=O)CNC(=O)/C=C/c2ccc(C(F)(F)F)cc2F)[C@@H](c2ccc(Cl)s2)CN1CCC(=O)O [I-396] | > 30000 |
